Where two headings read alike, the source gives them in different places.
Assays:
[1] = target: T1, Bovine Adrenal Estrogen Sulfotransferase (Bos taurus, UniProt P19217); test: Inhibition of bovine adrenal estrogen sulfotransferase (estrone sulfurylation); type: biochemical
T1 construct: The enzyme was isolated from the bovine adrenals; from tissue; host or cells: bovine adrenals; purified by ammonium sulfate fractionation and chromatography on DEAE-cellulose or DEAE-Sephadex A-50
T1 sequence (P19217 1-295): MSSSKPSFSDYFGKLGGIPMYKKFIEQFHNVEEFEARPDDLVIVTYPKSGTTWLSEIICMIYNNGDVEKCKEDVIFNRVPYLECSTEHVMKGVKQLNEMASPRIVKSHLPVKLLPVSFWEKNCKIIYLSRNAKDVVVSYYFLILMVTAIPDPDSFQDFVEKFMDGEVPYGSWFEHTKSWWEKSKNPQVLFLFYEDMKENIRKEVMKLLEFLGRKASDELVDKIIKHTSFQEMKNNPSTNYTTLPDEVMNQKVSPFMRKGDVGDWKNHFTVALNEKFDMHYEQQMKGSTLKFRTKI
Protocol: Materials are evaluated for activity as estrogen sulfotransferase inhibitors by the method of Rozhin et al, Journal of Biological Chemistry, 252:7214-7220 (October 25, 1977), herein incorporated by reference.
Isolation of Estrogen Sulfotransferase (EC 2.8.2.4). The enzyme was isolated from the bovine adrenals and purified by ammonium sulfate fractionation and column chromatography on DEAE-cellulose or DEAE-SephadexA-50 [Rozhin et al (1974)].
Standard Enzyme Assay. The incubation mixtures contained the following in a total volume of 0.2 ml: 0.4 mM P-Ado-PS; 2 to 23 μM estrone (3-hydroxy-1,3,5(10)-estratriene-17-one), 5×10^5 dpm of [6,7-^3 H]estrone; 5 mM magnesium acetate; 0.19 M Tris/HCl buffer (pH 8.1 at 37°); 5 ug of the enzyme; and 25 μM dithiothreitol. After a 10-min incubation (in the presence of a constant amount of inhibitor and a variable amount of estrone), the boiled mixtures were supplemented with 5 μg of aqueous estrone sulfate. The remaining [^3 H]estrone was extracted three times with 0.3 ml of ethyl ether. The residual ether was removed and the volume adjusted to 0.5 ml with methanol. A sample (25 μl) was applied, together with 10 μg of methanolic estrone sulfate marker, to type SG chromatography media (Gelman Instrument Co., Ann Arbor, Mich.), and developed with chloroform/acetone/acetic acid (110:35:6). After drying the sheet, samples were visualized by spraying with methylene blue (25 mg in 100 ml of 0.05 N H2 SO4), punched out with a cork borer, and counted in 10 ml of dioxane counting liquid. A blank employing a boiled enzyme sample was incubated and the recorded counts were substracted from each determination. The total corrected counts, representing steroid sulfate ester, were converted to nanomoles utilizing the specific activity of [^3 H]estrone. An enzyme unit was defined as that quantity of enzyme which synthesized 1 nmol of estrone sulfate in 1 min under chosen conditions. […] When nonsubstrate steroids were used as the inhibitors, the procedure for the enzyme assay was as described earlier [Rozhin et al (1974)], utilizing 5 μg of enzyme, P-Ado-[^35 S]PS, and unlabeled estrone.
Data Processing. The initial velocity analysis was carried out keeping the concentration of P-Ado-PS at saturation level, varying the estrone concentration and keeping the concentration of the inhibitor at a fixed level. Preliminary plots of the data were made in the double reciprocal form (l/v versus l/[S]), and in the form of replots of slopes (and intercepts) versus inhibitor concentration. On the basis of these plots, the proper inhibition pattern was chosen for each experiment and the data points were fitted to the appropriate equation.
Linear competitive inhibition: [formula]
Hyperbolic competitive inhibition: [formula]
Slope-parabolic non-competitive inhibition: [formula]
All calculations were performed using Cleland's Fortran programs (Adv. Enzymol., 29:1-32). The programs gave the values of Km, Vmax, and inhibition constants.
Fractional Inhibition. From kinetic experiments, Ki was calculated as described above under "Data Processing" after making replots of slopes (and/or intercepts) versus inhibitor concentration. […] Substituting v and vi from the corresponding rate equations in the absence of (v=(Vmax [S])/(Km +[S])) and presence of a (competitive) inhibition (Equation 1), the following relationship for FI is obtained: [formula] After substituting [S], Km, and [I] (see above), the equation for the fractional (competitive) inhibition simplifies to: [formula] and the mathematical relationship between FI and Ki of competitive inhibitors is represented by the continuous curve in FIG. 2 in Rozhin et al., J. Biol. Chem., 252, 7214-7220, 1977. The dashed line represents the relationship between FI and the Ki of pure noncompetitive inhibition derived mathematically in an analogous manner and expressed as [formula] Since [I]=22.2 μM, [formula]

[2] = test system: 17β-estradiol receptor (rabbit uterus 100,000×g supernatant); test: Competitive binding: effect on binding of 17β-estradiol (E2) by rabbit uterine tissue; conditions: 2000-fold excess; 0.7 nM tritiated 17β-estradiol; 2 h on ice
Protocol: Competitive binding experiments were carried out utilizing the 100,000×g supernatant from rabbit uterus maintained at 4° C. Unlabeled competitive estrogens were added to the incubation 10 min. before tritiated 17β-estradiol. Incubations were carried out in quadruplicate for 2 h on ice. [2,4,6,7-^3 H]-17-Estradiol was added to 0.5 ml of supernatant (0.69 mg protein) at a concentration of 0.7 nM. Radioactivity in the bound 17β-estradiol was assayed by the dextran-coated charcoal (1:10) procedure.

[3] = test system: estrogen sulfotransferase; test: Blocking of estrogen sulfotransferase activity by 3-methoxy-4-nitroestrone (Example 4); type: biochemical; conditions: molar ratio of 10:1
[4] = pH 8.1, read-out: Fractional Inhibition (Table II)
[5] = inhibitors 2 to 4 and 9 to 12; from kinetic experiments; read-out: Ki (Table II), not among those calculated
[6] = pH 8.1; read-out: Fractional Inhibition (Table II)
[7] = inhibitors 2, 7 and 8; competitive inhibition equation; read-out: Ki (Table I), calculated from fractional inhibition (competitive inhibition)
[8] = pH 8.1; read-out: Fractional Inhibition (Table I)
[9] = pH 8.1, read-out: Fractional Inhibition (Table I)
[10] = inhibitors 3 to 6, 12 and 16; from kinetic experiments; read-out: Ki (Table I), determined experimentally
[11] = inhibitors 1 and 5 to 8; calculated from fractional inhibition; read-out: Ki (Table II), calculated from Equation 4 (competitive inhibition)

C[C@]12CC[C@@H]3c4ccc(O)cc4CC[C@H]3[C@@H]1C[C@@H](O)[C@@H]2O [1,3,5(10)Estratriene-3,16α,17β-triol]
Ki [1]: 8.2 µM
inhibition at 22.2 µM [1, 4]: 66%

C[C@]12CC[C@@H]3c4ccc(O)cc4CC[C@H]3[C@@H]1C[C@@H](O)C2 [1,3,5(10)Estratriene-3,16α-diol]
Ki [1, 5]: 1.3 µM
inhibition at 22.2 µM [1, 6]: 89%

C[C@]12CC[C@@H]3c4ccc(O)cc4CC[C@H]3[C@@H]1C[C@H](O)[C@@H]2O [1,3,5(10)Estratriene-3,16β,17β-triol]
Ki [1]: 5.5 µM
inhibition at 22.2 µM [1, 4]: 72%

CC(=O)Oc1ccc2c(c1)CC[C@@H]1[C@@H]2CC[C@]2(C)[C@@H](O)CC[C@@H]12 [1,3,5(10)Estratriene-3,17β-diol-3-acetate]
Ki [1, 7]: 17 µM
inhibition at 22.2 µM [1, 8]: 39%

C[C@]12CC[C@@H]3c4ccc(OC(=O)c5ccccc5)cc4CC[C@H]3[C@@H]1CC[C@@H]2O [1,3,5(10)Estratriene-3,17β-diol-3-benzoate]
Ki [1]: 90 µM
inhibition at 22.2 µM [1, 9]: 11%

C[C@@]12CCC[C@H]1[C@@H]1CCc3cc(O)ccc3[C@H]1CC2 [1,3,5(10)Estratriene-3-ol]
Ki [1, 10]: 3.5 µM
inhibition at 22.2 µM [1, 8]: 67%

C[C@]12CC[C@@H]3c4ccccc4CC[C@H]3[C@@H]1CC[C@@H]2O [1,3,5(10)Estratriene-17β-ol]
Ki [1, 7]: 16 µM
inhibition at 22.2 µM [1, 8]: 41%

C[C@@]12CCC[C@H]1[C@@H]1CCc3ccccc3[C@H]1CC2 [1,3,5(10)Estratriene]
inhibition at 22.2 µM [1, 8]: 0%

C[C@]12CC[C@@H]3c4cc(Br)c(O)c(Br)c4CC[C@H]3[C@@H]1CC[C@@H]2O [2,4-Dibromo-1,3,5(10)estratriene-3,17β-diol]
Ki [1, 11]: 0.11 µM
inhibition at 22.2 µM [1, 6]: 99%

C[C@]12CC[C@@H]3c4cc([N+](=O)[O-])c(O)c([N+](=O)[O-])c4CC[C@H]3[C@@H]1CC[C@@H]2O [2,4-Dinitro-1,3,5(10)estratriene-3,17β-diol]
Ki [1]: 4.3 µM
inhibition at 22.2 µM [1, 4]: 72%

C[C@]12CC[C@@H]3c4cc(N)c(O)cc4CC[C@H]3[C@@H]1CC[C@@H]2O [2-Amino-1,3,5(10)estratriene-3,17β-diol]
Ki [1, 11]: 3.5 µM
inhibition at 22.2 µM [1, 6]: 76%

C[C@]12CC[C@@H]3c4cc([N+](=O)[O-])c(O)cc4CC[C@H]3[C@@H]1CC[C@@H]2O [2-Nitro-1,3,5(10)estratriene-3,17β-diol]
Ki [1, 5]: 2.4 µM
inhibition at 22.2 µM [1, 6]: 80%

C[C@]12CC[C@@H]3c4ccc(O)cc4C(=O)C[C@H]3[C@@H]1CC[C@@H]2O [3,17β-Dihydroxy-1,3,5(10)-estratriene-6-one]
Ki [1]: 5.5 µM
inhibition at 22.2 µM [1, 4]: 69%

C[C@]12CC[C@@H]3c4ccc(O)cc4CC[C@H]3[C@@H]1CCC2=O [3-Hydroxy-1,3,5(10)estratriene-17-one]
Ki [1]: 4.9 µM
inhibition at 22.2 µM [1, 8]: 65%

COc1ccc2c(c1)CC[C@@H]1[C@@H]2CC[C@]2(C)[C@@H](O)CC[C@@H]12 [3-Methoxy-1,3,5(10)estratriene-17β-ol]
Ki [1, 10]: 4.8 µM
inhibition at 22.2 µM [1, 8]: 61%

COc1ccc2c(c1[N+](=O)[O-])CC[C@@H]1[C@@H]2CC[C@]2(C)C(=O)CC[C@@H]12 [3-Methoxy-4-NO2-1,3,5(10)-estratriene-17-one]
Ki [1, 11]: 4.3 µM
inhibition at 22.2 µM [1, 6]: 72%
blocking of binding of 17β-estradiol to its receptor [2]: not blocked
blocked activity of estrogen sulfotransferase [3]: > 90%

C[C@]12CC[C@H](O)CC1=CC[C@@H]1[C@@H]2CC[C@]2(C)C(=O)CC[C@@H]12 [3β-Hydroxy-5-androstene-17-one]
Ki [1]: 170 µM
inhibition at 22.2 µM [1, 9]: 21%

C[C@]12CC[C@H](O)C[C@H]1CC[C@@H]1[C@@H]2CC[C@]2(C)C(=O)CC[C@@H]12 [3β-Hydroxy-5β-androstane-17-one]
Ki [1]: 302 µM
inhibition at 22.2 µM [1, 9]: 13%

C[C@]12CC[C@@H]3c4ccc(O)c(N)c4CC[C@H]3[C@@H]1CC[C@@H]2O [4-Amino-1,3,5(10)estratriene-3,17β-diol]
Ki [1, 11]: 3.5 µM
inhibition at 22.2 µM [1, 6]: 76%

C[C@]12CC[C@@H]3c4ccc(O)c([N+](=O)[O-])c4CC[C@H]3[C@@H]1CC[C@@H]2O [4-Nitro-1,3,5(10)estratriene-3,17β-diol]
Ki [1, 5]: 0.15 µM
inhibition at 22.2 µM [1, 6]: 98%

C[C@]12CC[C@H]3[C@@H](CC=C4C[C@@H](O)CC[C@@]43C)[C@@H]1CC[C@@H]2O [5-Androstene-3β,17β-diol]
Ki [1]: 35 µM
inhibition at 22.2 µM [1, 9]: 39%

C[C@@]12CCC[C@H]1[C@@H]1CC=C3C[C@@H](O)CC[C@]3(C)[C@H]1CC2 [5-Androstene-3β-ol]
Ki ([1]; inhibitors 10, 11 and 13 to 15; Equation 5 (noncompetitive); read-out: Ki (Table I), calculated from fractional inhibition (noncompetitive inhibition)): 50 µM
inhibition at 22.2 µM [1, 8]: 31%

C[C@@]12CCC[C@H]1[C@@H]1CC=C3CCCC[C@]3(C)[C@H]1CC2 [5-Androstene]
inhibition at 22.2 µM [1, 8]: 0%
estrogen sulfotransferase inhibition, in words ([1]; summary statement): inactive

C[C@]12CC[C@H](O)C[C@@H]1CC[C@@H]1[C@@H]2CC[C@]2(C)[C@@H](O)CC[C@@H]12 [5α-Androstane-3β,17β-diol]
Ki [1]: 47 µM
inhibition at 22.2 µM [1, 9]: 32%

C[C@]12CCC(=O)C[C@@H]1CC[C@@H]1[C@@H]2CC[C@]2(C)[C@@H](O)CC[C@@H]12 [17β-Hydroxy-5α-androstane-3-one]
Ki [1]: 38 µM
inhibition at 22.2 µM [1, 9]: 37%

C[C@]12CCC(=O)C[C@H]1CC[C@@H]1[C@@H]2CC[C@]2(C)[C@@H](O)CC[C@@H]12 [17β-Hydroxy-5β-androstane-3-one]
Ki [1]: 74 µM
inhibition at 22.2 µM [1, 9]: 23%

Source: patent US4340602A, “Compositions inhibiting estrogen sulfotransferase activity” (Wayne State University, priority 1978, dated 1982)
